“And” between values parts separate entries of the source, which are not always exact repeats. Identical values can stand only once. Like-named read-outs stand apart in the source and are kept apart here.
Legend:
C. elegans [1] = test: microbe, parasite or virus in culture; conditions: Caenorhabditis elegans
C. elegans [2] = system: C. elegans
[3] = 24 h, read-out: Percentage of motility inhibition 24 h, Table S2, C. elegans SS assay, 110 μM, 24 h, averages of 4 data points
[4] = Table S2, C. elegans SS assay, 110 μM, averages of 4 data points
[5] = 0 h, read-out: Percentage of motility inhibition 0 h, Table S2, C. elegans SS assay, 110 μM, 0 h, averages of 4 data points
[6] = 0 h, read-out: Percentage of motility inhibition 0 h
[7] = 24 h, read-out: Percentage of motility inhibition 24 h

SMILES	inhibition at 110 µM (C. elegans [1]; [3]) [%]	inhibition at 110 µM (C. elegans [1]; [5]) [%]	further results
CC1(C)[C@@H](O)CC[C@]2(C)[C@H]3C(=O)C=C4[C@H]5C[C@@](C)(C(=O)O)CC[C@]5(C)CC[C@@]4(C)[C@]3(C)CC[C@@H]12 [18α-Glycyrrhetinic acid]	18	–	Percentage of motility inhibition 24 h (C. elegans [2]; [4]): 10%
CC[C@H]1[C@@H]2C[C@H]3[C@@H]4N(C)c5ccccc5[C@]45C[C@@H]([C@H]2[C@H]5O)N3[C@@H]1O [Ajmaline]	–	19	Percentage of motility inhibition 0 h (C. elegans [2]; [4]): 13%
C=C1CC[C@@H]2[C@](C)(CO)[C@H](O)CC[C@@]2(C)[C@@H]1C/C=C1/C(=O)OC[C@H]1O [Andrographolide]	17	–	Percentage of motility inhibition 24 h (C. elegans [2]; [4]): 19%
C[C@H]1[C@H](OC(=O)CCC(=O)O)O[C@@H]2O[C@@]3(C)CC[C@H]4[C@H](C)CC[C@@H]1[C@@]24OO3 [Artesunate]	30	12	Percentage of motility inhibition 0 h (C. elegans [2]; [4]): 21%; Percentage of motility inhibition 24 h (C. elegans [2]; [4]): 15%
O=c1cc(-c2ccccc2)oc2cc(O)c(O)c(O)c12 [Baicalein]	12	10	Percentage of motility inhibition 0 h (C. elegans [2]; 110 μM): 14%; Percentage of motility inhibition 24 h (C. elegans [2]; 110 µM): 19%
O=C(O)[C@H]1O[C@@H](Oc2cc3oc(-c4ccccc4)cc(=O)c3c(O)c2O)[C@H](O)[C@@H](O)[C@@H]1O [Baicalin]	15	–	Percentage of motility inhibition 24 h (C. elegans [2]; 110 µM): 24%
C=C(C)[C@@H]1CC[C@]2(C(=O)O)CC[C@]3(C)[C@H](CC[C@@H]4[C@@]5(C)CC[C@H](O)C(C)(C)[C@@H]5CC[C@]43C)[C@@H]12 [Betulinic acid]	–	27	Percentage of motility inhibition 0 h (C. elegans [2]; [4]): 22%
CC12CCC(CC1=O)C2(C)C (stereo not drawn) [Camphor]	5	0	Percentage of motility inhibition 24 h (C. elegans [2]; [4]): 10%
CC[C@@]1(O)C(=O)OCc2c1cc1n(c2=O)Cc2cc3ccccc3nc2-1 [Camptothecin]	6	25	Percentage of motility inhibition 24 h (C. elegans [2]; [4]): 3%
O=c1c(-c2ccc(O)cc2)coc2cc(O)ccc12 [Daidzein]	14	–	Percentage of motility inhibition 24 h (C. elegans [2]; [4]): 10%
COC(=O)[C@H]1[C@H]2C[C@@H]3c4[nH]c5ccccc5c4CCN3C[C@H]2C[C@@H](OC(=O)c2cc(OC)c(OC)c(OC)c2)[C@@H]1OC [Deserpidine]	21	–	Percentage of motility inhibition 24 h (C. elegans [2]; [4]): 23%
CC[C@H]1OC(=O)[C@H](C)[C@@H](O[C@H]2C[C@@](C)(OC)[C@@H](O)[C@H](C)O2)[C@H](C)[C@@H](O[C@@H]2O[C@H](C)C[C@H](N(C)C)[C@H]2O)[C@](C)(O)C[C@@H](C)C(=O)[C@H](C)[C@@H](O)[C@]1(C)O [Erythromycin]	5	–	Percentage of motility inhibition 0 h (C. elegans [2]; [4]): 10% and 0%
Cc1ccc(C(C)C)cc2c(C)ccc1-2 [Guaiazulene]	24	–	Percentage of motility inhibition 24 h (C. elegans [2]; 110 µM): 12%
COC(=O)C[C@](O)(CCCC(C)(C)O)C(=O)O[C@@H]1C(OC)=C[C@]23CCCN2CCc2cc4c(cc2[C@H]13)OCO4 [Homoharringtonine]	–	20	Percentage of motility inhibition 0 h (C. elegans [2]; [4]): 12%; Percentage of motility inhibition 24 h (C. elegans [2]; [4]): 2% and 0%
CC1=C[C@]23C(=O)[C@@H](C=C(CO)[C@@H](O)[C@]2(O)[C@H]1O)[C@H]1[C@@H](C[C@H]3C)C1(C)C [Ingenol]	19	–	Percentage of motility inhibition 0 h (C. elegans [2]; [4]): 0% and 1%
COc1ccc2c(c1O)-c1c(OC)c(OC)cc3c1[C@H](C2)N(C)CC3 [Isocorydine]	–	0	Percentage of motility inhibition 24 h (C. elegans [2]; [4]): 7%
CN1CC[C@]23C(=O)C[C@H]4C(=CCO[C@H]5CC(=O)N(c6c(O)cccc62)[C@H]3[C@H]54)C1 [Vomicine]	0	0	–
C[C@@H](c1ncncc1F)[C@](O)(Cn1cncn1)c1ccc(F)cc1F [Voriconazole]	0	19	–
CC(=O)OC[C@]12[C@H](OC(C)=O)[C@H](OC(C)=O)[C@@H]3[C@@H](OC(C)=O)[C@@]14O[C@@]3(C)COC(=O)c1cccnc1CCC(C)C(=O)O[C@@H]([C@H](OC(=O)c1ccco1)[C@@H]2OC(C)=O)[C@]4(C)O (stereo partly drawn) [Wilforgine]	5	12	–
CC(=O)OC[C@]12[C@H](OC(C)=O)[C@H](OC(C)=O)[C@@H]3[C@@H](OC(C)=O)[C@@]14O[C@@]3(C)COC(=O)c1cccnc1CCC(C)C(=O)O[C@@H]([C@H](OC(=O)c1ccccc1)[C@@H]2OC(C)=O)[C@]4(C)O (stereo partly drawn) [Wilforine]	9	23	–
COc1c(O)cc(O)c2c(=O)cc(-c3ccccc3)oc12 [Wogonin]	–	–	inhibition at 110 µM (C. elegans [1]; [6]): 23%; inhibition at 110 µM (C. elegans [1]; [7]): 5%
COc1cc(O)c(CC=C(C)C)c(O)c1C(=O)/C=C/c1ccc(O)cc1 [Xanthohumol]	13	23	–

SMILES	inhibition at 110 µM (C. elegans [1]; [3]) [%]	inhibition at 110 µM (C. elegans [1]; [5]) [%]	further results
OC[C@@H](O)[C@H](O)[C@@H](O)CO [Xylitol]	13	22	–
O=C[C@H](O)[C@@H](O)[C@H](O)CO [Xylose]	11	17	–
CC1=CC(=O)[C@@H](O)[C@]2(C)[C@H]3[C@@H](O)[C@H](O)[C@]4(CO)OC[C@@]35[C@@H](C[C@@H]12)OC(=O)[C@H](O)[C@]54O [Yadanziolide A]	36	0	–
O=C(O)[C@@H]1[C@H]2C[C@H]3c4[nH]c5ccccc5c4CCN3C[C@@H]2CC[C@@H]1O [Yohimbic acid]	51	4	–
CCN1C[C@]2(COC)[C@H](O)C[C@H](OC)[C@]34C1[C@H]([C@H](OC)[C@H]23)[C@@]1(OC(C)=O)C[C@H](OC)[C@@]2(O)C[C@@H]4[C@@H]1[C@H]2OC(=O)c1ccc(OC)cc1 [Yunaconitine]	5	24	–
Nc1ccn([C@H]2CC[C@@H](CO)O2)c(=O)n1 [Zalcitabine]	20	19	–
CC(=O)N[C@H]1[C@H]([C@H](O)[C@H](O)CO)OC(C(=O)O)=C[C@@H]1N=C(N)N [Zanamivir]	6	22	–
Cc1cn([C@H]2C[C@H](N=[N+]=[N-])[C@@H](CO)O2)c(=O)[nH]c1=O [Zidovudine]	4	7	–
CCCCC[C@H](O)CC(=O)CCc1ccc(O)c(OC)c1 [[6]‐Gingerol]	10	1	–
C[C@@H]1O[C@@H](O[C@H]2[C@H](O[C@H]3CC[C@@]4(C)[C@@H](CC[C@]5(C)[C@@H]4CC=C4[C@@H]6CC(C)(C)CC[C@]6(C(=O)O)CC[C@]45C)[C@]3(C)CO)OC[C@H](O)[C@@H]2O)[C@H](O)[C@H](O)[C@H]1O [alpha-Hederin]	–	–	inhibition at 110 µM (C. elegans [1]; [6]): 6%; inhibition at 110 µM (C. elegans [1]; [7]): 0%
O[C@H]1[C@H](O)[C@@H](O)[C@H](O)[C@@H](O)[C@H]1O [i-Inositol]	0	0	–
O=C(O)CCCCC1CCSS1 (stereo not drawn) [α-Lipoic Acid]	3	9	–
CC1=CC[C@@H](C(C)(C)O)CC1 [α-Terpineol]	17	22	–
CC(=O)OC(C)(C)C1CC=C(C)CC1 (stereo not drawn) [α-Terpinyl acetate]	28	18	–
CC(C)[C@]12CC(=O)[C@H](C)[C@H]1C2 [α-Thujone]	20	9	–
C[C@H]1[C@H](C)CC[C@]2(C)CC[C@]3(C)C(=CC[C@@H]4[C@@]5(C)CC[C@@H](O)[C@](C)(C(=O)O)[C@@H]5CC[C@]43C)[C@H]12 [β-Boswellic acid]	–	–	inhibition at 110 µM (C. elegans [1]; [6]): 32%; inhibition at 110 µM (C. elegans [1]; [7]): 22%
C=C1CC/C=C(\C)CC[C@@H]2[C@@H]1CC2(C)C [β-Caryophyllene]	27	28	–
CC(C)=CCC[C@H](C(=O)O)[C@H]1CC[C@]2(C)C3=C(CC[C@@]12C)[C@@]1(C)CCC(=O)C(C)(C)[C@H]1CC3 [β-Elemonic acid]	28	23	–
C=C1C=CC(C(C)C)CC1 (stereo not drawn) [β-Phellandrene]	20	17	–
C=C1CCC2CC1C2(C)C (stereo not drawn) [β-Pinene]	12	2	–
CC1=CCC(C(C)C)=CC1 [γ-Terpinene]	31	6	–

— paper PMC11855827, “High-Throughput Screening of Five Compound Libraries for Anthelmintic Activity and Toxicity Leads to the Discovery of Two Flavonoid Compounds” (International Journal of Molecular Sciences, 2025)
